From patent US20240158466A1, “PEGYLATED P-SELECTIN INHIBITORS” (Beth Israel Deaconess Medical Center, Inc., priority 2021, published 2024)

Assays:
vein recanalization = details: primate models; cited from earlier work
vein wall injury = details: rats; cited from earlier work
thrombus = details: mice; cited from earlier work
[1] = tested on: platelet-monocyte aggregation; details: humans; cited from earlier work
[2] = target: P-selectin on activated human platelets (human) (UniProt P16109); test: cell-based or functional assay
[3] = target: P-selectin on activated mouse platelets (mouse) (UniProt Q01102); test: cell-based or functional assay
Chain of P-selectin on activated mouse platelets (mouse) (Q01102 42-768): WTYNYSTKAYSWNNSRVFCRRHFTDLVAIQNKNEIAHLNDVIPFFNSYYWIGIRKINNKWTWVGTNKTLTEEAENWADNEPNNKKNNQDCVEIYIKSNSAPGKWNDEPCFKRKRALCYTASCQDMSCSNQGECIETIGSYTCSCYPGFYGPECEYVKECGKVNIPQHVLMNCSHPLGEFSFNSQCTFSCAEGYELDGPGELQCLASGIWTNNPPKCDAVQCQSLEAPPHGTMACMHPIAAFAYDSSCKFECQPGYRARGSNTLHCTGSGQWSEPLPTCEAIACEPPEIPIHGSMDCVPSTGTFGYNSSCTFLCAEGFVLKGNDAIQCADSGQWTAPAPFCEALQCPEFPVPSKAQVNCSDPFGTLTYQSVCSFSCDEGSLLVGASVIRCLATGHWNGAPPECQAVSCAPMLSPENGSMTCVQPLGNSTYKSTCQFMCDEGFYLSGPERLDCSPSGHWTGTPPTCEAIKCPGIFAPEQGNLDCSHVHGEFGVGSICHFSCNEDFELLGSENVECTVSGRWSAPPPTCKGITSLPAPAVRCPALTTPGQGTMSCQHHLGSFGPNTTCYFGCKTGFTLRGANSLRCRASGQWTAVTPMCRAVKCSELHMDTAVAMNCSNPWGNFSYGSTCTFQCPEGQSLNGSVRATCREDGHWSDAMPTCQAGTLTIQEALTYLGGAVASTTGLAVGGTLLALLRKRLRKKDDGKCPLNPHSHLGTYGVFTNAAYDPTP

venous thrombus = test: Murine model of non-occlusive venous thrombosis (electrolytic injury of inferior vena cava); type: in vivo, C57BL/6 mice
Method: Enoxaparin was administered subcutaneously (6 mg/kg) 4 hours prior and 24 hours after electrolytic injury as a clinically relevant control. […] Venous side branches were ligated or cauterized, while posterior branches were left patent. A 25-gauge stainless steel needle, attached to a silver-coated copper wire was inserted into the exposed caudal vena cava and positioned against the anterior wall (anode). A second wire was implanted subcutaneously to complete the circuit (cathode) and a 250 μAmps current applied for 15 min. Subsequently, the needle was removed and a cotton swab held in gentle contact with the puncture site to prevent bleeding. The vena cava and associated thrombus, immediately below the renal veins to just above the bifurcation, was excised 48 hours after injury for determination of wet thrombus weight and histological examination. Specimens were fixed overnight in 10% neutral buffered formalin, processed for paraffin embedding, and 5 μm sections stained with hematoxylin and eosin (H&E) or antibodies specific to neutrophils (Ly-6G, BD Biosciences) and monocytes (CD68, Abeam, Cambridge, MA). The circumference of the vein wall was imaged at 20× magnification and leukocyte infiltration was quantified in 3 representative animals/group, 5 to 10 sections/tissue sample.

hemostasis = test: Tail vein transection bleeding time; type: in vivo, mouse; details: PG-6 8 μmol/kg or enoxaparin (LMWH) 6 mg/kg intravenous, 5 min prior to transection
Method: Hemostasis was assessed using a tail vein transection model to determine bleeding time.^63 Mice were anesthetized with ketamine and xylazine by intraperitoneal injection and placed on a warming mat at 37° C. Sterile saline, enoxaparin (6 mg/kg), or PG-6 in 125 μL of sterile saline was injected into the penile vein. Five minutes after administration of test compound, the lateral tail vein was transected with a number 11 scalpel blade at a tail width of 2.3 mm and immediately submerged in 37° C. phosphate buffered saline. The bleeding time was determined at that instant when bleeding had ceased for 30 seconds. Animals were excluded if arterial bleeding was present.

P-selectin [4] = target: T1, P-selectin (Homo sapiens, UniProt P16109); details: synthetic P-selectin antagonists, literature refs 48,49; cited from earlier work
T1 sequence (P16109 42-830): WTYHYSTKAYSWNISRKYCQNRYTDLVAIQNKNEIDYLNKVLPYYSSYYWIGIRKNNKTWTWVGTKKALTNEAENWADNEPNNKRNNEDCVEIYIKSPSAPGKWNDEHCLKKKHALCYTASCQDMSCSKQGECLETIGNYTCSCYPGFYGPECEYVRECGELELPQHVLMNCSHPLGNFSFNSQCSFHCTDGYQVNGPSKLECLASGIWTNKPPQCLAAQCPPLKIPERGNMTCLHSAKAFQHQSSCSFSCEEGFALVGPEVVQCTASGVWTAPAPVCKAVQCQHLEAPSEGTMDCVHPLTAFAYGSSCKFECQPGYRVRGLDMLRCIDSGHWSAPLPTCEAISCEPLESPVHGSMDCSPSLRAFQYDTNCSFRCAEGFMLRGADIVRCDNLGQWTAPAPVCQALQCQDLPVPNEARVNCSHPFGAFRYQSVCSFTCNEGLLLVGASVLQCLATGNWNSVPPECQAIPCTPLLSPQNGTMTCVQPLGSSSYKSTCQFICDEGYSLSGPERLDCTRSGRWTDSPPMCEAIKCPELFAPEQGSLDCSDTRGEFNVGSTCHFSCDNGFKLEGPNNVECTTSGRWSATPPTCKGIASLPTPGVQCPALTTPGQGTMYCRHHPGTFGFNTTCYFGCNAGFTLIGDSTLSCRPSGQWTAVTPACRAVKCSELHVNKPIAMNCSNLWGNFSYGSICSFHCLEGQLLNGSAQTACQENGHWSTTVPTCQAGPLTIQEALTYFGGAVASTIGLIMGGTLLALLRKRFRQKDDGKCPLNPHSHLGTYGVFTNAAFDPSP

[5] = high affinity biologics; cited from earlier work
P-selectin [6] = target: T1, P-selectin; details: cited from earlier work

O=C(O)c1c(O)c(C2(c3ccc(Cl)cc3)CC2)nc2c(C(F)(F)F)cccc12 [PSI-421, 2-[1-(4-chlorophenyl)cyclopropyl]-3-hydroxy-8-(trifluoromethyl)quinoline-4-carboxylic acid]
vein recanalization (vein recanalization): enhanced

O=C(O)c1c(O)c(Cc2ccc(Cl)cc2)nc2c3c(ccc12)CCCC3 [PSI-697]
wall stiffness, neointima formation, extravasation of inflammatory cells (vein wall injury): decreased
thrombus weight (thrombus): reduced
vein recanalization (vein recanalization): enhanced
inhibition of platelet-monocyte aggregation in a phase I trial [1]: failed to inhibit

PEG40-GSnP-6 (PG-6) (peptide)
human platelet-monocyte aggregates (flow cytometry, whole blood, PG-6 120 uM) [2]: 29 % reduction
human platelet-neutrophil aggregates (flow cytometry, whole blood, PG-6 120 uM) [2]: 42 % reduction
murine platelet-monocyte aggregates (flow cytometry, whole blood, PG-6 120 uM) [3]: 45 % reduction
murine platelet-neutrophil aggregates (flow cytometry, whole blood, PG-6 120 uM) [3]: 38 % reduction

enoxaparin
thrombus formation / thrombus weight vs saline vehicle (venous thrombus; 48 h after electrolytic injury, PG-6 8 μmol/kg IV, LMWH 6 mg/kg SC): significant reduction
infiltrating CD68+ macrophages in vein wall (venous thrombus; 48 h after thrombus induction): significant reduction
infiltrating Ly6G+ neutrophils in vein wall (venous thrombus; 48 h after thrombus induction): significant reduction
tail vein transection bleeding time (hemostasis): prolonged
tail vein transection bleeding time (hemostasis; listed as LMWH): significant increase

C[C@@H]1O[C@@H](O[C@@H]2[C@@H](NC(=O)c3cc(=O)[nH]c(=O)[nH]3)C[C@@H](C(=O)NCCNC(=O)COCCOCC(=O)Nc3cc(S(=O)(=O)O)cc4cc(S(=O)(=O)O)cc(S(=O)(=O)O)c34)C[C@H]2O[C@@H]2O[C@H](CO)[C@H](O)[C@H](O[C@@H](CC3CCCCC3)C(=O)O)[C@H]2OC(=O)c2ccccc2)[C@@H](O)[C@H](O)[C@@H]1O [GMI-1070]
IC50 (P-selectin [4]): 423 µM

B1: crizanlizumab: the only approved P-selectin inhibitor, an antibody (antibody, chains of the INN, looked up, V domains shown)
VH: QVQLVQSGAEVKKPGASVKVSCKVSGYTFTSYDINWVRQAPGKGLEWMGWIYPGDGSIKYNEKFKGRVTMTVDKSTDTAYMELSSLRSEDTAVYYCARRGEYGNYEGAMDYWGQGTLVTVSS
VL: DIQMTQSPSSLSASVGDRVTITCKASQSVDYDGHSYMNWYQQKPGKAPKLLIYAASNLESGVPSRFSGSGSGTDFTLTISSLQPEDFATYYCQQSDENPLTFGGGTKVEIK
t1/2 [5]: 10.6 days
Kd for P-selectin (in words) (P-selectin [6]; approved antibody): low nanomolar range

B2: PSGL-1: P-selectin glycoprotein ligand-1, native cognate ligand of P-selectin (protein, UniProt Q14242 42-412, looked up)
P-selectin glycoprotein …: QATEYEYLDYDFLPETEPPEMLRNSTDTTPLTGPGTPESTTVEPAARRSTGLDAGGAVTELTTELANMGNLSTDSAAMEIQTTQPAATEAQTTQPVPTEAQTTPLAATEAQTTRLTATEAQTTPLAATEAQTTPPAATEAQTTQPTGLEAQTTAPAAMEAQTTAPAAMEAQTTPPAAMEAQTTQTTAMEAQTTAPEATEAQTTQPTATEAQTTPLAAMEALSTEPSATEALSMEPTTKRGLFIPFSVSSVTHKGIPMAASNLSVNYPVGAPDHISVKQCLLAILILALVATIFFVCTVVLAVRLSRKGHMYPVRNYSPTEMVCISSLLPDGGEGPSATANGGLSKAKSPGLTPEPREDREGDDLTLHSFLP
Kd (P-selectin [6]; reported values): 0.07 to 0.3 µM
